Data from PMC7570852, “Ruthenium(II)/(III) DMSO-Based Complexes of 2-Aminophenyl Benzimidazole with In Vitro and In Vivo Anticancer Activity” (Molecules, 2020).
Marks after values point to notes of the source that are not given here.

What was measured:
[1] = test system: MCF7 cells; experiment: Cell-cycle analysis by flow cytometry (PI), MCF7; type: cell-based, human; settings: MCF7, 117.6 μg/mL, 24 h
Protocol: The Ru(III) complex (2) (117.6 μg/mL) was added to MCF7 and Caco2 cells at a confluence of 70–80% and incubated for 24 h (in a CO2 incubator). The cells were then digested with warm trypsin-EDTA + warm PBS-EDTA (0.25%) (500 + 500 μL) with incubation for 10 min at 37 °C. The mixture was centrifuged (450 rpm) for 5 min, then the supernatant was removed. The mixture was washed twice in warm PBS and the cell pellet was re-suspended in 500 µl warm PBS, centrifuged and the supernatant decanted. A volume of 150 μL PBS + 350 μL ice-cold 70% ethanol was added and incubated at 4 °C for 1 h to fix the cells. To remove ethanol, the mixture was centrifuged at 350 rpm for 10 min and then the supernatant was removed. The mixture was washed twice in warm PBS and the cells were re-suspended in 500 μL of warm PBS, centrifuged, and the supernatant was removed. The cells were resuspended in 100 μL PBS and stored at 4 °C for up to four days. In darkness, the cells were stained with 100 µL of propidium iodide (PI) solution + 50 µL RNase A solution (100 µg/mL) and incubated in darkness for 30–60 min. The stained cells were read in an Attune flow cytometer (Applied Bio-system, Foster City, CA, USA).

[2] = test system: Ehrlich ascites carcinoma (EAC); experiment: EAC mouse model: abdominal size and peritoneal angiogenesis; type: in vivo, mice; settings: for mean abdominal circumference: EAC mice
Protocol: (§1) The mice were divided into the following eight groups (10 mice in each group): • Control group: Mice were intraperitoneally injected with a vehicle (2% DMSO + sterile saline) for 12 days. • I, II, and III control groups: Healthy normal mice were intraperitoneally injected with 6, 12, and 18 mg/kg of complex (2), respectively, for 12 days. • EAC group: Mice were intraperitoneally injected by a single dose of 2.5 × 10^6 viable Ehrlich ascites carcinoma (EAC) cells in PBS. In brief, EAC cells were withdrawn from the EAC mouse’s intraperitoneal cavity, washed, and centrifuged three times with sterile saline. Then, the pellets were suspended in sterile PBS and counted by the trypan blue exclusion assay, which confirmed that the viability of the cells was 98%. • I, II, and III treated groups: Firstly, 30 healthy mice were intraperitoneally injected with a single dose of 2.5 × 10^6 viable EAC cells. After one day; the mice were divided into I, II, and III treated groups (10 mice each group), intraperitoneally injected with 6, 12, and 18 mg/kg Ru(III) complex, respectively, for 12 days.
(§2) The animals were monitored for EAC growth by measuring abdominal size. At the end of the experiment all animals were fasted overnight then sacrificed. Serum samples were collected to study the biological parameters such as liver and kidney function as well as antioxidant enzyme activity. Liver samples from each group were frozen immediately in liquid nitrogen for molecular analysis.

[3] = test system: Bax gene expression; experiment: Real-time qPCR of liver tissue, Bax; type: in vivo; settings: liver tissue of EAC-bearing mice, vs untreated
Protocol: RNA was isolated from liver tissues using a RNeasy Mini kit. The integrity and purity of RNA were assessed by 1% agarose gel electrophoresis and nanodrop, respectively. The obtained RNA was reverse transcribed to yield cDNA using Quantiscript reverse transcriptase. Specific primers for Bax, caspase 3, and Bcl2 genes in addition to the housekeeping gene, β actin were designed by the Primer 3 web-based tool based on the published mice sequences (Table 5). Quantitative real-time PCR (qPCR) was performed using QuantiTect SYBR Green qPCR Master Mix in a StepOnePlus real-time PCR system and the melting curve condition and fold change calculation were done as previously described.

[4] = test system: human colorectal cancer (Caco2) cells; experiment: MTT cell viability assay, Caco2; type: cell-based
Protocol: The cytotoxic effect of the Hapbim ligand and its complexes (1) and (2) on human breast cancer (MCF7), human colorectal cancer (Caco2), and human normal liver (THLE-2) cell lines was evaluated by the MTT assay. The cells were cultured in a 96-well plate (1 × 10^4 cells/well, 100 μL/well) containing DMEM medium provided with 10% fetal bovine serum, and 1% penicillin/streptomycin. Then, the cells were incubated at 37 °C for 24 h in a CO2 incubator under 5% CO2, 95% air until reaching a confluence of 70–80%. A 20 μL volume of each compound at different concentrations (from 5 to 400 μM for the cancer cell and from 600 to 1000 μM for the normal cells) was added and the cells were re-incubated for a further 24 h. After the incubation period, the cells were incubated again with 5 mg/mL of MTT for 4 h and then the medium was replaced with 100 μL DMSO and vortexed for 20 min. Finally, the absorbance was recorded at 570 nm using the microplate reader. […] To calculate the cell inhibition percentage, the following equation was used:% Cell inhibition = 100 − % cell viability ((At − Ab)/(Ac − Ab)) × 100%)(4) where At is the absorbance value of tested compound; Ab is the absorbance value of blank; Ac is the absorbance value of the control.

[5] = Serum liver and kidney function tests, healthy mice; type: in vivo; settings: mean ± SEM
Protocol: as §1, §2
Liver function tests. Serum GPT and GOT activities were measured by the method of Murray with a standard kit. The enzyme activities were estimated by measuring the decrease in absorbance of NADH at 340 nm. Bilirubin concentration was estimated by the colorimetric method of Kaplan et al.. Albumin concentration was measured colorimetrically by the color change of bromocresol from yellow-green to green-blue.
Kidney function tests. Creatinine was estimated colorimetrically by reacting with alkaline picrate forming a red complex. Urea was hydrolyzed enzymatically into ammonia which reacts with several compounds to form a green complex that can be measured colorimetrically. Uric acid was estimated by the enzymatic method of Schultz.

[6] = II control 12 mg/kg i.p. 12 days
[7] = III control 18 mg/kg i.p. 12 days

## CS(C)=O.Nc1ccccc1-c1nc2ccccc2[nH]1.O.[Cl][Ru]([Cl])[Cl] [(2), [Ru(III)Cl3(DMSO)(Hapbim)]·H2O]
[1]
  cells in G0/G1 phase: 24%
  cells in G2/M phase: 55%
  cells in S phase: 21%
[2]; EAC mice, 6, 12, 18 mg/kg treated groups vs EAC group
  peritoneal angiogenesis: decreased in a dose-dependent manner
[2]; I (6 mg/kg) i.p. for 12 days, untreated EAC 13.20 ± 0.03, control 7.06 ± 0.18
  mean abdominal circumference: 9.6 ± 0.2 cm
[2]; II (12 mg/kg) i.p. for 12 days
  mean abdominal circumference: 7.30 ± 0.03 cm
[2]; III (18 mg/kg) i.p. for 12 days
  mean abdominal circumference: 7.10 ± 0.03 cm
[3]
  Bax mRNA level: significant increases
[4]; MTT, 24 h
  IC50: 250 ± 10 µM
  IC50 Caco2: 129 ± 8 µg/mL
[4]; in vitro
  Therapeutic index: IC50 of THLE-2 cell/IC50 of Caco2: 9.95
[5]; I control 6 mg/kg i.p. 12 days
  Albumin: 2.3 ± 0.1 g/dL
  Bilirubin: 0.15 ±0.02 ^b mg/dL
  Creatinine: 0.37 ±0.1 ^b mg/dL
  GOT: 41.8 ± 2.9 ^b U/L
  GPT: 15.6 ± 1.6 ^b U/L
  Urea: 33.5 ± 0.7 ^b mg/dL
  Uric Acid: 2.9 ± 0.1 ^b mg/dL
[5]; [6]
  Albumin: 2.7 ± 0.1 ^b g/dL
  Bilirubin: 0.13 ± 0.02 ^b mg/dL
  Creatinine: 0.7 ± 0.02 mg/dL
  GOT: 54.9 ± 2.2 U/L
  GPT: 17.2 ± 0.5 ^b U/L
  Urea: 31.7 ± 1.2 ^b mg/dL
  Uric Acid: 2.97 ± 0.1 ^b mg/dL
[5]; [7]
  Albumin: 2.3 ± 0.1 g/dL
  Bilirubin: 0.26 ± 0.02 mg/dL
  Creatinine: 0.75 ± 0.02 mg/dL
  GOT: 68.8 ± 3.6 U/L
  GPT: 19.6 ± 0.3 U/L
  Urea: 36.7 ± 1.6 ^b mg/dL
  Uric Acid: 2.77 ± 0.1 ^b mg/dL
